Results as given in patent US12629419B2, “Prevention or mitigation of T-cell engaging agent-related adverse effects” (Hoffmann-La Roche Inc., priority 2020, dated 2026).
Entries after “also recorded” stand apart in the source; their conditions may differ.

Experiments:
[1] = system: CD4+ and CD8+ T cells; assay: T cell activation (CD25, CD69 by flow cytometry) in CEA-TCB killing assay; type: cell-based; conditions: 10 nM CEA-TCB
[2] = system: A375 NucLight Red (NLR) target-cells; assay: killing assay with PBMCs, A375 NLR target cells and MAGEA4-TCB (Incucyte); type: cell-based; conditions: 8 nM MAGEA4-TCB; escalating inhibitor concentrations
[3] = system: WSU DLCL2 tumor cells; assay: CD20-TCB killing assay, inhibitors added after 18 hours of activation: tumor cell killing; type: cell-based; conditions: 100 nM added at 18 h
Protocol: (§1) FIG. 34. In vitro killing assay set-up. Cell Trace™ Violet (CTV) labelled WSU DLCL2 tumor cells were co-cultured together with PBMCs [E:T=200′000:20′000] and stimulated with CD20-TCB for 18 h.
(§2) In this assay, CTV labelled WSU DLCL2 tumors cells were co-cultured with PBMCs in the presence of escalating doses of CD20-TCB for 18 hours.

[4] = system: CD19-TCB-induced cytokine release; assay: CD19-TCB-induced cytokine release in SUDLH-8 assay (Luminex); type: cell-based; conditions: 24 hrs
Protocol: (§3) PBMCs were co-cultured together with CellTrace™ Violet (CTV) labelled SUDLH-8 tumor cells and escalating concentrations of CD19-TCB in the presence of the different kinase inhibitors, including also the Src inhibitor dasatinib (FIG. 64). At assay endpoint (24 hrs), the killing of CTV labelled SUDLH-8 cells was measured by flow cytometry by exclusion of the dead SUDLH-8 cells with a Live/Dead stain. […] Lastly, the levels of cytokines were measured in the supernatants of the assay to evaluate the effect of mTOR, JAK and Src inhibitors on CD19-TCB-induced cytokine release.
(§4) At assay endpoint (24 hrs), the killing of CTV labelled SUDLH-8 cells was measured by flow cytometry by exclusion of the dead SUDLH-8 cells with a Live/Dead stain. […] Lastly, the levels of cytokines were measured in the supernatants of the assay to assess the effect of the JAK inhibitors on CD19-TCB-induced cytokine release.
as §4, with “stain to evaluate the effect of the different mitigation approaches on CD19-TCB-dependent killing.” for “stain.”, “address” for “assess”

[5] = system: MKN45 NucLight Red (NLR) target cells; assay: killing assay with PBMCs, MKN45 NLR target cells and CEA-TCB (Incucyte); type: cell-based; conditions: inhibitor doses 12.5 nM to 1 μM; 50 000 PBMCs: 5 000 target cells; Incucyte
[6] = system: CEA-TCB-induced cytokine release; assay: CEA-TCB-induced cytokine release (Luminex, supernatants); conditions: 10 nM CEA-TCB
Protocol: The levels of cytokines were measured by Luminex in the supernatants of the assay to determine the impact of the different compounds on CEA-TCB-induced cytokine release.

[7] = system: CD20-TCB-induced cytokine release; assay: CD20-TCB killing assay, inhibitors added after 18 hours: cytokine release from pre-activated effector cells; type: cell-based; conditions: 100 nM added at 18 h
Protocol: as §1, §2

[8] = system: SUDLH-8 tumor cells; assay: killing assay with PBMCs, CTV labelled SUDLH-8 tumor cells and CD19-TCB; type: cell-based; conditions: 24 hrs; 100 nM kinase inhibitors or dexamethasone, 5 μg/mL antibodies
Protocol: FIG. 64. In vitro killing assay set-up. PBMCs were co-cultured with CellTrace™ Violet (CTV) labelled SUDLH-8 tumor cells (E:T=10:1) in the presence of escalating concentrations of CD19-TCB in media supplemented with the different kinase inhibitors (100 nM) for 24 hrs.
FIG. 69. In vitro killing assay set-up. PBMCs were co-cultured with CTV labelled SUDLH-8 cells (E:T=10:1) in the presence of escalating concentrations of CD19-TCB in media supplemented with the different JAK inhibitors (100 nM) for 24 hrs.
FIG. 73. In vitro killing assay set-up.
as §3, §4
as §4, with “stain to evaluate the effect of the different mitigation approaches on CD19-TCB-dependent killing.” for “stain.”, “address” for “assess”

[9] = system: CD4+ and CD8+ T cells; assay: T cell activation (CD25, CD69) in CD20-TCB killing assay; type: cell-based; conditions: 1 nM CD20-TCB; 24 h; inhibitor 0 nM to 1000 nM
Protocol: A similar experiment was conducted with another TCB. WSU DLCL2 cells were co-cultured together with PBMCs in the presence of 1 nM CD20-TCB (SEQ ID NOs 4-11, 24-35), and escalating sirolimus doses ranging from 0 nM to 1000 nM (FIG. 13).
(§5) A similar experiment was conducted with CD20-TCB.
(§6) A similar experiment was conducted with CD20-TCB. WSU DLCL2 cells were co-cultured together with PBMCs in the presence of 1 nM CD20-TCB, and escalating everolimus doses ranging from 0 nM to 1000 nM (FIG. 13).
(§7) A similar experiment was conducted with CD20-TCB. WSU DLCL2 cells were co-cultured together with PBMCs in the presence of 1 nM CD20-TCB, and escalating ruxolitinib doses ranging from 0 nM to 1000 nM (FIG. 13).
(§8) A similar experiment was conducted with another TCB. […] The killing of B cells was measured as a readout for the impact of the various compounds on TCB efficacy at 24 h (FIGS. 27 and 28). […] Lastly, the levels of cytokines (TNF-α, IFN-γ, IL-2, IL-6, IL-4, IL-10, GM-CSF and IL-1β) were analyzed by Luminex at assay endpoint to assess the impact of the different treatments on TCB-induced cytokine release (FIGS. 32 and 33).
(§9) At 24 hours, tumor cell killing was measured by flow cytometry by exclusion of dead CTV cells. The supernatants were collected and cytokines were measured by Luminex.

[10] = system: CD4+ and CD8+ T cells; assay: CD20-TCB killing assay, inhibitors added after 18 hours: T cell activation; type: cell-based; conditions: 100 nM added at 18 h
Protocol: as §1, §2

[11] = system: CD20-TCB-induced cytokine release; assay: CD20-TCB-induced cytokine release (Luminex); type: cell-based; conditions: 24 h
Protocol: A similar experiment was conducted with another TCB.
as §5, §6, §7, §8, §9

[12] = 66 h, fixed compound concentrations
[13] = 72 h, concentrations above 25 nM, reduced from ~45%
[14] = 1 nM CD20-TCB, three donors, between 18 hours and 44 hours
[15] = measured at 44 hours, escalating CD20-TCB

## CO[C@H]1C[C@@H]2CC[C@@H](C)[C@@](O)(O2)C(=O)C(=O)N2CCCC[C@H]2C(=O)O[C@H]([C@H](C)C[C@@H]2CC[C@@H](OCCO)[C@H](OC)C2)CC(=O)[C@H](C)/C=C(\C)[C@@H](O)[C@@H](OC)C(=O)[C@H](C)C[C@H](C)/C=C/C=C/C=C/1C [everolimus, Everolimus]
[1]; summary statement, also for target cell killing
  T cell activation triggered by the TCB: does not fully inhibit
[1]; [12]
  CD25 and CD69 expression on CD4+ and CD8+ T cells (T cell activation): milder impact
[1]; 72 h
  expression of CD69 on CD8+ T cells: did not affect
[1]; [13]
  expression of CD25 on CD4+ T cells: ~15%
  expression of CD69 on CD4+ T cells: ~25%
[1]; 72 h, concentrations above 25 nM, reduced from ~75% (everolimus: ~70%)
  expression of CD25 on CD8+ T cells: 40%
[2]
  MAGEA4-TCB induced tumor cell killing: did not prevent
[3]; [14]
  CTV labelled WSU DLCL2 tumor cell killing: did not impact further
[3]; [15]
  CTV labelled WSU DLCL2 tumor cell killing: did not impact
[4]; 100 nM inhibitor
  CD19-TCB-induced cytokine release: comparable to the effect of the corticosteroid dexamethasone
[4]; 100 nM, compared with dexamethasone
  CD19-TCB-induced IFN-γ and TNF-α: comparable to the effect of dexamethasone
[5]
  MKN45 NLR target cell killing by 10 nM CEA-TCB: only partially reduced
[6]; assay endpoint 72 h (ruxolitinib 69 h), in comparison to samples without inhibitor
  levels of IFN-γ, TNF-α, IL-2, IL-6, MCP-1, IL-8, IL-10, IL-4 and GM-CSF: very low
[6]; even at the lowest doses tested
  CEA-TCB induced cytokine release: strongly downregulated; also recorded: strongly reduces
[6]; [12]
  CEA-TCB-induced cytokine release: inhibited; also recorded: comparable to dexamethasone and dasatinib
[7]; 1 nM CD20-TCB, three donors
  further release of IFN-γ, IL-2, IL-6: prevented further release
[7]; between 18 hours and 44 hours
  IL-2, IFN-γ, IL-6 and GM-CSF release: stopped
  release of TNF-α and IL-1β: to a lower extent
[8]
  CD19-TCB-dependent killing of CTV labelled SUDLH-8 cells: did not prevent
[9]
  T cell activation (CD25 and CD69 on CD4+ and CD8+ T cells): did not fully inhibit
[10]; [14]
  T cell activation: did not impact further
[10]; [15]
  T cell activation: did not impact
[11]; 1 nM CD20-TCB, concentrations above 12.5 nM
  cytokine release induced by CD20-TCB (IFN-γ, IL-2, TNF-α, GM-CSF and IL-6): strongly reduced
[11]; escalating CD20-TCB / 1 nM CD20-TCB, fixed compound concentrations
  CD20-TCB-induced cytokine release: comparable effect to dexamethasone and dasatinib
